Reference: the Deep4Chem optical property database

Test: solvent given as SMILES

Work on C(=C\c1ccnc2ccccc12)/c1c2ccccc2cc2ccccc12 yielded an absorption maximum (in CC1CCCCC1) of 387 nm and an absorption maximum (in CC#N) of 387 nm.
O=c1oc2ccc3ccc(O)cc3c2nc1-c1ccccc1 gave an absorption maximum (in c1ccccc1) of 406 nm.
Ic1ccc(-c2c3ccc(=[N+]4CCCCC4)cc-3oc3cc(N4CCCCC4)ccc23)cc1 gave an absorption maximum (in CCO) of 568 nm and an absorption maximum (in ClCCl) of 570 nm.
In the case of Cc1ccc(C2=C3C=CC4=[N+]3[P-](=O)(=O)n3c2ccc3-c2ccc([nH]2)/C(c2ccc(C)cc2)=c2/cc/c(o2)=C(\c2ccc(C)cc2)c2ccc4[nH]2)cc1, the absorption maximum (in ClC(Cl)Cl) is reported as 708 nm.
CN1C(=CC2=C([O-])C(=Cc3sc4ccccc4[n+]3C)C2=C(C#N)C#N)Sc2ccccc21 gave an absorption maximum (in ClC(Cl)Cl) of 703 nm.
For COC(=O)c1c(NC(C)(C)C)oc(-c2ccc(-c3ccccc3)cc2)c1C(=O)OC, the absorption maximum (in CC#N) was 355 nm.
Work on Cc1ccc(C#Cc2ccc3ccc(=O)oc3c2)cc1 yielded an absorption maximum (in CC#N) of 304 nm.
With Cc1cccc2nc3c(=O)n(C)c(=O)nc-3n(C)c12 the absorption maximum (in CC#N) was 439 nm.
For O=C1Nc2ccccc2/C1=C/C(=O)c1ccc(Cl)cc1Cl, the absorption maximum (in C1CCCCC1) was 336 nm, the absorption maximum (in C1COCCO1) was 337 nm and the absorption maximum (in CC#N) was 334 nm. It also gave an absorption maximum (in CC(C)(C)O) of 339 nm, an absorption maximum (in CC(C)O) of 339 nm and an absorption maximum (in CCCCCC) of 334 nm. The absorption maximum (in CCCCO) was 341 nm, the absorption maximum (in CCOC(C)=O) was 335 nm and the absorption maximum (in CN(C)C=O) was 340 nm. It also gave an absorption maximum (in CO) of 339 nm, an absorption maximum (in ClCCl) of 339 nm and an absorption maximum (in O) of 340 nm.
Compound CC[n+]1c(-c2ccccc2)c2cc(NC(N)=[NH2+])ccc2c2ccc(N)cc21 has an absorption maximum (in O) of 454 nm.
Compound CCN(CC)/C(C)=N\c1ccc2c3c(cccc13)C(=O)c1ccccc1-2 has an absorption maximum (in C1CCOC1) of 472 nm, an absorption maximum (in CCCCCC) of 444 nm and an absorption maximum (in CCO) of 473 nm. The absorption maximum (in CCOC(C)=O) was 463 nm, the absorption maximum (in CN(C)C=O) was 479 nm and the absorption maximum (in CO) was 472 nm. For the same compound, the absorption maximum (in Cc1ccccc1) was 461 nm, the absorption maximum (in ClC(Cl)(Cl)Cl) was 467 nm and the absorption maximum (in ClC(Cl)Cl) was 467 nm. The absorption maximum (in ClCCl) was 467 nm and the absorption maximum (in c1ccccc1) was 462 nm.
CCCCCCCCCCc1cc(-c2cc(CCCCCCCCCC)c(-c3cccs3)s2)sc1-c1cccs1 showed an absorption maximum (in CCCCCCCCCCCCCC) of 380 nm.
O=C(c1sc(-c2ccc(-c3cc(-c4cccs4)c(C(=O)N4CCOCC4)s3)s2)cc1-c1cccs1)N1CCOCC1 showed an absorption maximum (in ClCCl) of 379 nm.
Compound COCCOCCOCCOCCOc1ccc(OCCOCCOCCOCCOC)c(C=O)c1 has an absorption maximum (in CC(C)(C)O) of 350 nm, an absorption maximum (in CC(C)CO) of 350 nm and an absorption maximum (in CC(C)O) of 349 nm. It also gave an absorption maximum (in CCCCO) of 349 nm, an absorption maximum (in CCCO) of 349 nm and an absorption maximum (in CCO) of 349 nm. It also gave an absorption maximum (in CN(C)C=O) of 350 nm, an absorption maximum (in CNC=O) of 349 nm and an absorption maximum (in CO) of 349 nm. It also gave an absorption maximum (in NC=O) of 352 nm and an absorption maximum (in O) of 351 nm.
c1ccc(-c2nc3ccccc3nc2-c2cc(-c3nc4ccccc4nc3-c3ccccc3)cc(-n3c4ccccc4c4ccccc43)c2)cc1 showed an absorption maximum (in Cc1ccccc1) of 340 nm.
Work on C1CCN2CCCn3c2c(c2c3=NCCN=2)C1 yielded an absorption maximum (in CC#N) of 370 nm and an absorption maximum (in CCCCCC) of 352 nm.
Nc1n[n+]([O-])c2cc(F)ccc2[n+]1[O-] showed an absorption maximum (in CC#N) of 489 nm and an absorption maximum (in O) of 468 nm.
Work on CCN(CC)c1ccc(/C=C/C(=O)c2c(O)cc(C)oc2=O)cc1 yielded an absorption maximum (in CC#N) of 476 nm, an absorption maximum (in CCCO) of 468 nm and an absorption maximum (in CCO) of 488 nm. The absorption maximum (in CCOC(C)=O) was 472 nm, the absorption maximum (in Cc1ccccc1) was 471 nm and the absorption maximum (in ClCCl) was 480 nm.
Work on CCC1(CC)c2cc(B(c3c(C)cc(C)cc3C)c3c(C)cc(C)cc3C)ccc2-c2c1c1c(c3c2C(CC)(CC)c2cc(B(c4c(C)cc(C)cc4C)c4c(C)cc(C)cc4C)ccc2-3)C(CC)(CC)c2cc(B(c3c(C)cc(C)cc3C)c3c(C)cc(C)cc3C)ccc2-1 yielded an absorption maximum (in C1CCOC1) of 362 nm, an absorption maximum (in CC#N) of 359 nm and an absorption maximum (in CC(C)=O) of 360 nm. The absorption maximum (in CCCCCC) was 362 nm and the absorption maximum (in Cc1ccccc1) was 364 nm.
With CC1=C(c2ccccc2)C(C)=[N+]2C1=C(c1c(-c3ccccn3)nc3ccccn13)c1c(C)c(-c3ccccc3)c(C)n1[B-]2(F)F the absorption maximum (in ClCCl) was 548 nm.
Compound Nc1cccc2c1C(=O)c1ccccc1-2 has an absorption maximum (in C1CCCCC1) of 407 nm, an absorption maximum (in CC#N) of 420 nm and an absorption maximum (in CCO) of 431 nm. It also gave an absorption maximum (in c1ccccc1) of 416 nm.
Compound Fc1ccccc1-c1nc2sc3ccccc3c2s1 has an absorption maximum (in CS(C)=O) of 344 nm.
Work on CC[n+]1c(-c2ccccc2)c2cc(NC(N)=O)ccc2c2ccc(NC(N)=O)cc21 yielded an absorption maximum (in O) of 434 nm.
CC(C)(C)c1ccc(C2=C(c3ccc(N4c5ccccc5C(C)(C)c5ccccc54)cc3)S(=O)(=O)c3c2sc(-c2ccc(N4c5ccccc5C(C)(C)c5ccccc54)cc2)c3-c2ccc(C(C)(C)C)cc2)cc1 gave an absorption maximum (in C1CCOC1) of 403 nm.
